Results reported in ChEMBL document CHEMBL6115030, “Systematic All-Hydrocarbon Stapling Analysis for Cecropin A Generates a Potent and Stable Antimicrobial Peptide” (J Med Chem, 2025).
Converted amounts (≈) assume the structure as drawn. Bridge positions count the residues as written; N and C are the ends. Square brackets hold non-standard residues; d marks the D form. Peptide text beside a SMILES is read from it. R5 = C=CCCC[C@@](C)(N)C(=O)O; S5 = C=CCCC[C@](C)(N)C(=O)O

How the values were obtained:
Type in all cases: functional
Staphylococcus aureus = assay: Antibacterial activity against Staphylococcus aureus ATCC 25923 assessed as inhibition of bacterial growth measured after 24 hrs by broth microdilution method
Klebsiella pneumoniae = assay: Antibacterial activity against Klebsiella pneumoniae ATCC 13883 assessed as inhibition of bacterial growth measured after 24 hrs by broth microdilution method
Pseudomonas aeruginosa = assay: Antibacterial activity against Pseudomonas aeruginosa PAO1 assessed as inhibition of bacterial growth measured after 24 hrs by broth microdilution method

SMILES	MIC (Staphylococcus aureus) [µM]	MIC (Klebsiella pneumoniae) [µM]	MIC (Pseudomonas aeruginosa) [µM]
CC[C@H](C)[C@H](NC(=O)CNC(=O)[C@H](CC(=O)O)NC(=O)[C@H](CCCNC(=N)N)NC(=O)[C@@H](NC(=O)[C@]1(C)CCC/C=C\CCC[C@](C)(NC(=O)[C@H](CCC(=O)O)NC(=O)[C@@H](NC(=O)[C@H](CCCCN)NC(=O)[C@H](CCCCN)NC(=O)[C@H](Cc2ccccc2)NC(=O)[C@H](CC(C)C)NC(=O)[C@H](CCCCN)NC(=O)[C@H](Cc2c[nH]c3ccccc23)NC(=O)[C@H](CCCCN)NC(C)=O)[C@@H](C)CC)C(=O)N[C@@H](C(C)C)C(=O)NCC(=O)N[C@@H](CCC(N)=O)C(=O)N1)[C@@H](C)CC)C(=O)N[C@H](C(=O)N[C@@H](CCCCN)C(=O)N[C@@H](C)C(=O)NCC(=O)N1CCC[C@H]1C(=O)N[C@@H](C)C(=O)N[C@H](C(=O)N[C@@H](C)C(=O)N[C@H](C(=O)N[C@H](C(=O)NCC(=O)N[C@@H](CCC(N)=O)C(=O)N[C@@H](C)C(=O)N[C@H](C(=O)N[C@@H](CCC(N)=O)C(=O)N[C@H](C(=O)N[C@@H](C)C(=O)N[C@@H](CCCCN)C(N)=O)[C@@H](C)CC)[C@@H](C)O)C(C)C)C(C)C)C(C)C)[C@@H](C)CC (Ac-KWKLFKKIE[S5]VGQ[S5]IRDGIIKAGPAVAVVGQATQIAK-NH2; staple (Z) 10-14)	> 100	> 100	> 100
CC[C@H](C)[C@H](NC(=O)CNC(=O)[C@H](CC(=O)O)NC(=O)[C@H](CCCNC(=N)N)NC(=O)[C@@H](NC(=O)[C@H](CC(N)=O)NC(=O)[C@H](CCC(N)=O)NC(=O)CNC(=O)[C@]1(C)CCC/C=C\CCC[C@](C)(NC(=O)[C@H](CCCCN)NC(=O)[C@H](Cc2ccccc2)NC(=O)[C@H](CC(C)C)NC(=O)[C@H](CCCCN)NC(=O)[C@H](Cc2c[nH]c3ccccc23)NC(=O)[C@H](CCCCN)NC(C)=O)C(=O)N[C@@H]([C@@H](C)CC)C(=O)N[C@@H](CCC(=O)O)C(=O)N[C@@H](CCCCN)C(=O)N1)[C@@H](C)CC)C(=O)N[C@H](C(=O)N[C@@H](CCCCN)C(=O)N[C@@H](C)C(=O)NCC(=O)N1CCC[C@H]1C(=O)N[C@@H](C)C(=O)N[C@H](C(=O)N[C@@H](C)C(=O)N[C@H](C(=O)N[C@H](C(=O)NCC(=O)N[C@@H](CCC(N)=O)C(=O)N[C@@H](C)C(=O)N[C@H](C(=O)N[C@@H](CCC(N)=O)C(=O)N[C@H](C(=O)N[C@@H](C)C(=O)N[C@@H](CCCCN)C(N)=O)[C@@H](C)CC)[C@@H](C)O)C(C)C)C(C)C)C(C)C)[C@@H](C)CC (Ac-KWKLFK[S5]IEK[S5]GQNIRDGIIKAGPAVAVVGQATQIAK-NH2; staple (Z) 7-11)	> 100	6.25 (≈ 25.4 µg/mL)	> 100
CC[C@H](C)[C@H](NC(=O)CNC(=O)[C@H](CC(=O)O)NC(=O)[C@H](CCCNC(=N)N)NC(=O)[C@@H](NC(=O)[C@H](CC(N)=O)NC(=O)[C@H](CCC(N)=O)NC(=O)CNC(=O)[C@@H](NC(=O)[C@H](CCCCN)NC(=O)[C@H](CCC(=O)O)NC(=O)[C@@H](NC(=O)[C@]1(C)CCC/C=C\CCC[C@](C)(NC(=O)[C@H](Cc2c[nH]c3ccccc23)NC(=O)[C@H](CCCCN)NC(C)=O)C(=O)N[C@@H](CC(C)C)C(=O)N[C@@H](Cc2ccccc2)C(=O)N[C@@H](CCCCN)C(=O)N1)[C@@H](C)CC)C(C)C)[C@@H](C)CC)C(=O)N[C@H](C(=O)N[C@@H](CCCCN)C(=O)N[C@@H](C)C(=O)NCC(=O)N1CCC[C@H]1C(=O)N[C@@H](C)C(=O)N[C@H](C(=O)N[C@@H](C)C(=O)N[C@H](C(=O)N[C@H](C(=O)NCC(=O)N[C@@H](CCC(N)=O)C(=O)N[C@@H](C)C(=O)N[C@H](C(=O)N[C@@H](CCC(N)=O)C(=O)N[C@H](C(=O)N[C@@H](C)C(=O)N[C@@H](CCCCN)C(N)=O)[C@@H](C)CC)[C@@H](C)O)C(C)C)C(C)C)C(C)C)[C@@H](C)CC (Ac-KW[S5]LFK[S5]IEKVGQNIRDGIIKAGPAVAVVGQATQIAK-NH2; staple (Z) 3-7)	> 100	> 100	> 100
CC[C@H](C)[C@H](NC(=O)[C@H](CCC(N)=O)NC(=O)[C@@H](NC(=O)[C@H](C)NC(=O)[C@H](CCC(N)=O)NC(=O)CNC(=O)[C@@H](NC(=O)[C@@H](NC(=O)[C@H](C)NC(=O)[C@@H](NC(=O)[C@H](C)NC(=O)[C@@H]1CCCN1C(=O)CNC(=O)[C@H](C)NC(=O)[C@H](CCCCN)NC(=O)[C@@H](NC(=O)[C@]1(C)CCC/C=C\CCC[C@](C)(NC(=O)[C@H](CC(N)=O)NC(=O)[C@H](CCC(N)=O)NC(=O)CNC(=O)[C@@H](NC(=O)[C@H](CCCCN)NC(=O)[C@H](CCC(=O)O)NC(=O)[C@@H](NC(=O)[C@H](CCCCN)NC(=O)[C@H](CCCCN)NC(=O)[C@H](Cc2ccccc2)NC(=O)[C@H](CC(C)C)NC(=O)[C@H](CCCCN)NC(=O)[C@H](Cc2c[nH]c3ccccc23)NC(=O)[C@H](CCCCN)NC(C)=O)[C@@H](C)CC)C(C)C)C(=O)N[C@@H](CCCNC(=N)N)C(=O)N[C@@H](CC(=O)O)C(=O)NCC(=O)N1)[C@@H](C)CC)C(C)C)C(C)C)C(C)C)[C@@H](C)O)C(=O)N[C@@H](C)C(=O)N[C@@H](CCCCN)C(N)=O (Ac-KWKLFKKIEKVGQN[S5]RDG[S5]IKAGPAVAVVGQATQIAK-NH2; staple (Z) 15-19)	> 100	12.5 (≈ 50.9 µg/mL)	100 (≈ 407 µg/mL)

The next compounds have a lower MIC (Staphylococcus aureus) than those just listed; values first:

MIC (Staphylococcus aureus) [µM]	MIC (Klebsiella pneumoniae) [µM]	MIC (Pseudomonas aeruginosa) [µM]	SMILES
25 (≈ 102 µg/mL)	> 100	> 100	CC[C@H](C)[C@H](NC(=O)CNC(=O)[C@H](CC(=O)O)NC(=O)[C@]1(C)CCC/C=C\CCC[C@](C)(NC(=O)[C@@H](NC(=O)[C@H](CCCCN)NC(=O)[C@H](CCC(=O)O)NC(=O)[C@@H](NC(=O)[C@H](CCCCN)NC(=O)[C@H](CCCCN)NC(=O)[C@H](Cc2ccccc2)NC(=O)[C@H](CC(C)C)NC(=O)[C@H](CCCCN)NC(=O)[C@H](Cc2c[nH]c3ccccc23)NC(=O)[C@H](CCCCN)NC(C)=O)[C@@H](C)CC)C(C)C)C(=O)N[C@@H](CCC(N)=O)C(=O)N[C@@H](CC(N)=O)C(=O)N[C@@H]([C@@H](C)CC)C(=O)N1)C(=O)N[C@H](C(=O)N[C@@H](CCCCN)C(=O)N[C@@H](C)C(=O)NCC(=O)N1CCC[C@H]1C(=O)N[C@@H](C)C(=O)N[C@H](C(=O)N[C@@H](C)C(=O)N[C@H](C(=O)N[C@H](C(=O)NCC(=O)N[C@@H](CCC(N)=O)C(=O)N[C@@H](C)C(=O)N[C@H](C(=O)N[C@@H](CCC(N)=O)C(=O)N[C@H](C(=O)N[C@@H](C)C(=O)N[C@@H](CCCCN)C(N)=O)[C@@H](C)CC)[C@@H](C)O)C(C)C)C(C)C)C(C)C)[C@@H](C)CC (Ac-KWKLFKKIEKV[S5]QNI[S5]DGIIKAGPAVAVVGQATQIAK-NH2; staple (Z) 12-16)
25 (≈ 102 µg/mL)	6.25 (≈ 25.4 µg/mL)	> 100	CC[C@H](C)[C@H](NC(=O)CNC(=O)[C@H](CC(=O)O)NC(=O)[C@H](CCCNC(=N)N)NC(=O)[C@@H](NC(=O)[C@H](CC(N)=O)NC(=O)[C@H](CCC(N)=O)NC(=O)CNC(=O)[C@@H](NC(=O)[C@H](CCCCN)NC(=O)[C@H](CCC(=O)O)NC(=O)[C@]1(C)CCC/C=C\CCC[C@](C)(NC(=O)[C@H](CCCCN)NC(=O)[C@H](Cc2c[nH]c3ccccc23)NC(=O)[C@H](CCCCN)NC(C)=O)C(=O)N[C@@H](Cc2ccccc2)C(=O)N[C@@H](CCCCN)C(=O)N[C@@H](CCCCN)C(=O)N1)C(C)C)[C@@H](C)CC)C(=O)N[C@H](C(=O)N[C@@H](CCCCN)C(=O)N[C@@H](C)C(=O)NCC(=O)N1CCC[C@H]1C(=O)N[C@@H](C)C(=O)N[C@H](C(=O)N[C@@H](C)C(=O)N[C@H](C(=O)N[C@H](C(=O)NCC(=O)N[C@@H](CCC(N)=O)C(=O)N[C@@H](C)C(=O)N[C@H](C(=O)N[C@@H](CCC(N)=O)C(=O)N[C@H](C(=O)N[C@@H](C)C(=O)N[C@@H](CCCCN)C(N)=O)[C@@H](C)CC)[C@@H](C)O)C(C)C)C(C)C)C(C)C)[C@@H](C)CC (Ac-KWK[S5]FKK[S5]EKVGQNIRDGIIKAGPAVAVVGQATQIAK-NH2; staple (Z) 4-8)
6.25 (≈ 25.3 µg/mL)	25 (≈ 101 µg/mL)	> 100	CC[C@H](C)[C@@H]1NC(=O)CNC(=O)[C@](C)(NC(=O)[C@H](CCCNC(=N)N)NC(=O)[C@@H](NC(=O)[C@H](CC(N)=O)NC(=O)[C@H](CCC(N)=O)NC(=O)CNC(=O)[C@@H](NC(=O)[C@H](CCCCN)NC(=O)[C@H](CCC(=O)O)NC(=O)[C@@H](NC(=O)[C@H](CCCCN)NC(=O)[C@H](CCCCN)NC(=O)[C@H](Cc2ccccc2)NC(=O)[C@H](CC(C)C)NC(=O)[C@H](CCCCN)NC(=O)[C@H](Cc2c[nH]c3ccccc23)NC(=O)[C@H](CCCCN)NC(C)=O)[C@@H](C)CC)C(C)C)[C@@H](C)CC)CCC/C=C\CCC[C@](C)(C(=O)N[C@@H](C)C(=O)NCC(=O)N2CCC[C@H]2C(=O)N[C@@H](C)C(=O)N[C@H](C(=O)N[C@@H](C)C(=O)N[C@H](C(=O)N[C@H](C(=O)NCC(=O)N[C@@H](CCC(N)=O)C(=O)N[C@@H](C)C(=O)N[C@H](C(=O)N[C@@H](CCC(N)=O)C(=O)N[C@H](C(=O)N[C@@H](C)C(=O)N[C@@H](CCCCN)C(N)=O)[C@@H](C)CC)[C@@H](C)O)C(C)C)C(C)C)C(C)C)NC(=O)[C@H]([C@@H](C)CC)NC1=O (Ac-KWKLFKKIEKVGQNIR[R5]GII[R5]AGPAVAVVGQATQIAK-NH2; staple (Z) 17-21)
3.13 (≈ 12.8 µg/mL)	6.25 (≈ 25.6 µg/mL)	6.25 (≈ 25.6 µg/mL)	CC[C@H](C)[C@H](NC(=O)CNC(=O)[C@H](CC(=O)O)NC(=O)[C@H](CCCNC(=N)N)NC(=O)[C@@H](NC(=O)[C@H](CC(N)=O)NC(=O)[C@H](CCC(N)=O)NC(=O)CNC(=O)[C@@H](NC(=O)[C@H](CCCCN)NC(=O)[C@H](CCC(=O)O)NC(=O)[C@@H](NC(=O)[C@H](CCCCN)NC(=O)[C@H](CCCCN)NC(=O)[C@H](Cc1ccccc1)NC(=O)[C@H](CC(C)C)NC(=O)[C@H](CCCCN)NC(=O)[C@H](Cc1c[nH]c2ccccc12)NC(=O)[C@H](CCCCN)NC(C)=O)[C@@H](C)CC)C(C)C)[C@@H](C)CC)C(=O)N[C@H](C(=O)N[C@@H](CCCCN)C(=O)N[C@@H](C)C(=O)NCC(=O)N1CCC[C@H]1C(=O)N[C@@H](C)C(=O)N[C@H](C(=O)N[C@@]1(C)CCC/C=C\CCC[C@@](C)(C(=O)N[C@@H](C)C(=O)N[C@H](C(=O)N[C@@H](CCC(N)=O)C(=O)N[C@H](C(=O)N[C@@H](C)C(=O)N[C@@H](CCCCN)C(N)=O)[C@@H](C)CC)[C@@H](C)O)NC(=O)CNC(=O)[C@H](C(C)C)NC(=O)[C@H](C(C)C)NC1=O)C(C)C)[C@@H](C)CC (Ac-KWKLFKKIEKVGQNIRDGIIKAGPAV[S5]VVG[S5]ATQIAK-NH2; staple (Z) 27-31)
